Measurements published in US12121510B2 (Cedars-Sinai Medical Center, priority 2016, dated 2024).
Where two headings read alike, the source gives them in different places.

Tests used:
A549 = test: Cell proliferation IC50, Crystal Violet assay; format: cell-based, human; details: 72 h
95C = test: Cell proliferation IC50, Crystal Violet assay; format: cell-based, human; details: 95C (Non-Met); 72 h; single agent; mean ± SEM
Description: (§1) Exemplary Embodiments are generally performed as follows, unless otherwise noted. Simvastatin is purchased from Ark Pharm, Inc. (Arlington Heights, IL). Cisplatin (CIS) is purchased from MedKoo Biosciences, Inc. (Chapel Hill, NC). Dihydroartemisinin is purchased from TCI America (Portland, OR). All other chemicals and reagents are purchased from standard sources such as Sigma-Aldrich and/or VWR and are of highest quality available. Puromycin dihydrochloride was purchased from Alfa Aesar (Tewksbury, MA). Deionized water ([…]) used for making solutions is obtained from Milli-Q Direct Ultrapure Water System from Millipore (Billerica, MA, USA). All intermediates are characterized by 1H NMR and mass analysis and the purity of compounds are analyzed by HPLC. 1H NMR data are collected on Bruker 400 MHz spectrometers using standard parameters; chemical shifts are reported in ppm (δ) in reference to residual non-deuterated solvent. ESI mass spectroscopy analysis is performed using a Thermo Fisher LTQ Orbitrap Elite system. IC50 is the half maximal inhibitory concentration and determined is determined by crystal violet assay unless otherwise noted.
(§2) H446 is a SCLC cell line. […] Drugs tested and compared include CIS and DZ-CIS ester. Each drug is used as single agent.

95D = test: Cell proliferation IC50, Crystal Violet assay; format: cell-based, human; details: 95D (Met); 72 h; single agent; mean ± SEM
Description: as §1, §2

H446 = test: Cell proliferation IC50, Crystal Violet assay; format: cell-based, human; details: SCLC H446; 72 h; single agent; mean ± SEM
Description: as §1, §2

YTMLC = test: Cell proliferation IC50, Crystal Violet assay; format: cell-based, human; details: 72 h, single agent, mean ± SEM
Description: as §1, §2

CA-46 = test: Lymphoma cell growth IC50 (MTT); format: cell-based, human
Description: as §1
(§3) The crystal violet assay is performed as follows, unless otherwise noted. Cell lines are supplemented with RPMI 1640 medium, 10% fetal bovine serum, 1% PenStrep, and placed in a humidified atmosphere containing 5% CO2 at 37° C. 5,000 cells/well renal cancer cells and 10,000 cells/well lymphoma cells are seeded in 96 well plates in 100 microliter medium/per well for 24 h. […] Renal cancer cells are fixed with 3.7% paraformaldehyde for 15 minutes and are stained with Crystal violet solution (0.5% in 25% methanol) for 30 minutes. After rinsing with water cell layers are dried and decolorized with Sorenson citrate with shaking for 20 minutes. Light absorption of the extracted supernatant is read at 595 nm. Lymphoma cell growth was evaluated using MTT and cells are incubated for 4 hours. 100 microliters of isopropanol is added, and the extracted supernatant fraction is read at absorption maximum of 595 nm.
(§4) Standard cell culture conditions typically are RPMI 1640 medium, 10% fetal bovine serum, 1% PenStrep, and are performed in a humidified atmosphere containing 5% CO2 at 37° C. Generally, 5,000 cells/well-10,000 cells/well are seeded in 96 well plates in 100 microliter medium/per well for 24 h, or as described in Example 16, unless otherwise noted. Certain cells require specialized media, growth factors, antibiotics, or culture condition adjustments, as will be apparent to a person of ordinary skill in the art.
as §3, with “Cell” for “The crystal violet assay is performed as follows, unless otherwise noted. Cell”, “cultured as follows. […]” for “supplemented with RPMI 1640 medium, 10% fetal bovine serum, 1% PenStrep, and placed in a humidified atmosphere containing 5% CO2 at 37° C.”, “is” for “was”

Daudi = test: Lymphoma cell growth IC50 (MTT); format: cell-based, human
Description: as §1, §3, §4
as §3, with “Cell” for “The crystal violet assay is performed as follows, unless otherwise noted. Cell”, “cultured as follows. […]” for “supplemented with RPMI 1640 medium, 10% fetal bovine serum, 1% PenStrep, and placed in a humidified atmosphere containing 5% CO2 at 37° C.”, “is” for “was”

Namalwa = test: Lymphoma cell growth IC50 (MTT); format: cell-based, human
Description: as §1, §3, §4
as §3, with “Cell” for “The crystal violet assay is performed as follows, unless otherwise noted. Cell”, “cultured as follows. […]” for “supplemented with RPMI 1640 medium, 10% fetal bovine serum, 1% PenStrep, and placed in a humidified atmosphere containing 5% CO2 at 37° C.”, “is” for “was”

Raji = test: Lymphoma cell growth IC50 (MTT); format: cell-based, human
Description: as §1, §3, §4
as §3, with “Cell” for “The crystal violet assay is performed as follows, unless otherwise noted. Cell”, “cultured as follows. […]” for “supplemented with RPMI 1640 medium, 10% fetal bovine serum, 1% PenStrep, and placed in a humidified atmosphere containing 5% CO2 at 37° C.”, “is” for “was”

Ramos = test: Lymphoma cell growth IC50 (MTT); format: cell-based, human
Description: as §1, §3, §4
as §3, with “Cell” for “The crystal violet assay is performed as follows, unless otherwise noted. Cell”, “cultured as follows. […]” for “supplemented with RPMI 1640 medium, 10% fetal bovine serum, 1% PenStrep, and placed in a humidified atmosphere containing 5% CO2 at 37° C.”, “is” for “was”

C4-2B = test: Cancer cell growth IC50 (crystal violet); format: cell-based; details: Example 15
Description: as §1, §3, §4

LNCaP = test: Cancer cell growth IC50 (crystal violet); format: cell-based; details: Example 15
Description: as §1, §3, §4

PC3M = test: Cancer cell growth IC50 (crystal violet); format: cell-based; details: Example 15
Description: as §1, §3, §4

U87 = test: Cancer cell growth IC50 (crystal violet); format: cell-based; details: Example 15
Description: as §1, §3, §4

OV90 = test: Ovarian cancer cell growth IC50 (crystal violet); format: cell-based, human
Description: as §1, §4
(§5) OV90 and OVCA433 are grown in vitro according to their standard culturing conditions, and an assay such as the crystal violet assay is performed.

OVCA 433 = test: Ovarian cancer cell growth IC50 (crystal violet); format: cell-based, human
Description: as §1, §4, §5

[1] = test system: human kidney carcinoma cell lines (ACHN, Caki-1, 0-786, SKRC); test: Growth IC50 in kidney carcinoma cell line panel; format: cell-based; details: all kidney cancer cell lines; 72 hours; read-out: IC50 across kidney cancer cell lines
Method: as §3
The significance for all results was p<0.0001.

[2] = test system: renal cancer and B-cell lymphoma cell lines; test: Growth IC50 in renal cancer and B-cell lymphoma panel; format: cell-based, human; details: all cancer cell lines of Example 16; 72 h; read-out: IC50 across renal cancer and B-cell lymphoma cell lines
Method: as §3, with “Cell” for “The crystal violet assay is performed as follows, unless otherwise noted. Cell”, “cultured as follows. […]” for “supplemented with RPMI 1640 medium, 10% fetal bovine serum, 1% PenStrep, and placed in a humidified atmosphere containing 5% CO2 at 37° C.”, “is” for “was”

OV90 and OVCA 433 = test: Growth IC50 in ovarian cancer cell strains; format: cell-based, human; details: 72 h; read-out: IC50 across ovarian cancer cell strains OV90 and OVCA 433
Method: as §5

Namalwa xenograft tumors = test: Burkitt lymphoma xenograft tumor growth; format: in vivo; details: Example 5; NCr Nu/Nu (10 μM) and NOD-SCID (5 μM) mice; 2 times a week; versus CIS or vehicle, p<0.05
Method: Representative results are illustrated in FIG. 5. DZ-CIS is administered to tumors as follows. 15 mice each (NCr Nu/Nu, right panel of FIG. 5, and NOD-SCID, left panel) are injected with Human Burkitt lymphoma cell line, Namalwa cells (10^3), producing 4 xenograft tumors per mouse.

[3] = 72 hours, read-out: Half maximal inhibitory concentration (IC50)

How did the IC50 (A549; A549 parental, single agent, mean ± SEM, read-out: IC50) turn out when `N.N.[Cl][Pt][Cl]` [CIS, cis-diamminedichloridoplatinum (II)] was run?
Its IC50 is 26 ± 1.2 µM.

What about the IC50 (A549; read-out: IC50 of CIS, Mean, A549, CIS alone) of the same molecule?
The IC50 was 26 µM.

What about the IC50 (95C) of the same molecule?
Its IC50 is 12.7 ± 1 µM.

And the IC50 (95D)?
The IC50 was > 100 µM.

And the IC50 (H446)?
Its IC50 is 107.3 ± 1 µM.

What about the IC50 (YTMLC) of the same molecule?
Its IC50 is 16.2 ± 1 µM.

What about the IC50 (CA-46; CA-46, 72 hours, read-out: Half maximal inhibitory concentration (IC50)) of the same molecule?
The IC50 was > 64 µM.

What about the IC50 (CA-46; Example 15, CA46, read-out: IC50) of the same molecule?
Its IC50 is > 64 µM.

What about the IC50 (Daudi; [3]) of the same molecule?
Its IC50 is > 64 µM.

What about the IC50 (Daudi; Example 15, read-out: IC50) of the same molecule?
The IC50 was > 64 µM.

What about the IC50 (Namalwa; [3]) of the same molecule?
The IC50 was > 64 µM.

What about the IC50 (Namalwa; Example 15, read-out: IC50) of the same molecule?
Its IC50 is > 64 µM.

And the IC50 (Raji; [3])?
The IC50 was > 64 µM.

What about the IC50 (Raji; Example 15, read-out: IC50) of the same molecule?
Its IC50 is > 64 µM.

What about the IC50 (Ramos; [3]) of the same molecule?
The IC50 was > 64 µM.

What about the IC50 (Ramos; Example 15, read-out: IC50) of the same molecule?
The IC50 was > 64 µM.

What about the IC50 (C4-2B) of the same molecule?
Its IC50 is > 64 µM.

What about the IC50 (LNCaP) of the same molecule?
The IC50 was > 64 µM.

What about the IC50 (PC3M) of the same molecule?
Its IC50 is > 64 µM.

And the IC50 (U87)?
The IC50 was > 64 µM.

And the IC50 (OV90; 72 h)?
The IC50 was > 64 µM.

And the IC50 (OV90; Example 15)?
The IC50 was > 64 µM.

What about the IC50 (OVCA 433; Example 15, OV433) of the same molecule?
Its IC50 is > 64 µM.

And the IC50 (OVCA 433; OVCA 433, 72 h)?
Its IC50 is > 64 µM.

And the IC50 [1]?
The IC50 was > 64 µM.

And the IC50 [2]?
The IC50 was > 64 µM.

What about the IC50 (OV90 and OVCA 433) of the same molecule?
Its IC50 is > 64 µM.

What about the “Tumor volume, Namalwa xenograft” value (Namalwa xenograft tumors) of the same molecule?
The value was “not CIS alone”.
